PubChem BioAssay AID1963866 (Molecular Pharmacology Branch, DTP, NCI, 2024)

System: PDC KRAS tumor spheroids with HUVEC/MSC, viability
Test: Anticancer human tumor 349418-098-R-PDC patient-derived lung adenocarcinoma cell line growth inhibition [KRAS2]
Settings: for IC50: curve of first compound; for viability, T/C: stronger effect = lower value
How it was run: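 KRAS-mutant tumor cells were grown as spheroids with HUVEC endothelial cells and human MSCs as stroma. Targeted agents were tested alone and with KRAS pathway inhibitors. Doses started at or near clinical Cmax, or 10 microM, descending half-log.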

[1] = second compound 0.1 µM, first compound 0.0316 µM
[2] = second compound 0.1 µM, first compound 0.1 µM
[3] = second compound 0.1 µM, first compound 0.316 µM
[4] = second compound 0.1 µM, first compound 1 µM
[5] = second compound 0.1 µM, first compound 3.16 µM
[6] = second compound 0.1 µM, first compound 10 µM
[7] = second compound 0.316 µM, first compound 0.0316 µM
[8] = second compound 0.316 µM, first compound 0.1 µM
[9] = second compound 0.316 µM, first compound 0.316 µM
[10] = second compound 0.316 µM, first compound 1 µM
[11] = second compound 0.316 µM, first compound 3.16 µM
[12] = second compound 0.316 µM, first compound 10 µM
[13] = second compound 1 µM, first compound 0.0316 µM
[14] = second compound 1 µM, first compound 0.1 µM
[15] = second compound 1 µM, first compound 0.316 µM
[16] = second compound 1 µM, first compound 1 µM
[17] = second compound 1 µM, first compound 3.16 µM
[18] = second compound 1 µM, first compound 10 µM
[19] = second compound 3.16 µM, first compound 0.0316 µM
[20] = second compound 3.16 µM, first compound 0.1 µM
[21] = second compound 3.16 µM, first compound 0.316 µM
[22] = second compound 3.16 µM, first compound 1 µM
[23] = second compound 3.16 µM, first compound 3.16 µM
[24] = second compound 3.16 µM, first compound 10 µM
[25] = second compound 10 µM, first compound 0.0316 µM
[26] = second compound 10 µM, first compound 0.1 µM
[27] = second compound 10 µM, first compound 0.316 µM
[28] = second compound 10 µM, first compound 1 µM
[29] = second compound 10 µM, first compound 3.16 µM
[30] = second compound 10 µM, first compound 10 µM
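Also: spheroids exposed to compounds for seven days before readout.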

Compound | IC50 (second compound 0.1 µM) [nM] | IC50 (second compound 0.316 µM) [nM] | IC50 (second compound 1 µM) [nM] | IC50 (second compound 3.16 µM) [nM] | IC50 (second compound 10 µM) [nM] | viability, T/C [1] [%] | viability, T/C [2] [%] | viability, T/C [3] [%] | viability, T/C [4] [%] | viability, T/C [5] [%] | viability, T/C [6] [%] | viability, T/C [7] [%] | viability, T/C [8] [%] | viability, T/C [9] [%] | viability, T/C [10] [%] | viability, T/C [11] [%] | viability, T/C [12] [%] | viability, T/C [13] [%] | viability, T/C [14] [%] | viability, T/C [15] [%] | other results
CC1OCC2(CCN(c3cnc(Sc4ccnc(N)c4Cl)c(N)n3)CC2)C1N (stereo not given) + C=CC(=O)N1CCN(c2nc(=O)n(-c3c(C)ccnc3C(C)C)c3nc(-c4c(O)cccc4F)c(F)cc23)C(C)C1 | > 10000 | > 10000 | > 10000 | > 10000 | < 31.6 | 109 | 79.5 | 110 | 90 | 76 | 74.5 | 87.3 | 94.9 | 90.2 | 100 | 96.4 | 78.5 | 82 | 106 | 96.3 | viability, T/C [16]: 78.6%; viability, T/C [17]: 95.5%; viability, T/C [18]: 73.8%; viability, T/C [19]: 70.2%; viability, T/C [20]: 71.1%; viability, T/C [21]: 72.6%; viability, T/C [22]: 63.2%; viability, T/C [23]: 68%; viability, T/C [24]: 60.2%; viability, T/C [25]: 30.3%; viability, T/C [26]: 33.1%; viability, T/C [27]: 23.9%; viability, T/C [28]: 25%; viability, T/C [29]: 28%; viability, T/C [30]: 21.9%
COc1cc2nccc(Oc3ccc(NC(=O)C4(C(=O)Nc5ccc(F)cc5)CC4)cc3)c2cc1OC + COc1cc2nc(C)nc(NC(C)c3cc(N)cc(C(F)(F)F)c3)c2cc1OC1CCOC1 | 936 | 732 | 656 | 611 | < 31.6 | 111 | 107 | 81.8 | 9.71 | 21.9 | 113 | 102 | 97.3 | 71.2 | 8.51 | 15.3 | 103 | 109 | 97.7 | 65.4 | viability, T/C [16]: 8.96%; viability, T/C [17]: 12.7%; viability, T/C [18]: 102%; viability, T/C [19]: 98.4%; viability, T/C [20]: 85.6%; viability, T/C [21]: 72.6%; viability, T/C [22]: 6.65%; viability, T/C [23]: 2.1%; viability, T/C [24]: 90.6%; viability, T/C [25]: 44.6%; viability, T/C [26]: 11.7%; viability, T/C [27]: 7.86%; viability, T/C [28]: 0.78%; viability, T/C [29]: 0.14%; viability, T/C [30]: 61.9%
COc1cc2nccc(Oc3ccc(NC(=O)C4(C(=O)Nc5ccc(F)cc5)CC4)cc3)c2cc1OC + CC1OCC2(CCN(c3cnc(Sc4ccnc(N)c4Cl)c(N)n3)CC2)C1N | 1700 | 1670 | 1530 | 1430 | 1350 | 113 | 104 | 99.9 | 78.6 | 12.3 | 21.2 | 108 | 98.4 | 96.1 | 79.1 | 10.4 | 17.9 | 104 | 114 | 99.5 | viability, T/C [16]: 68.7%; viability, T/C [17]: 14.3%; viability, T/C [18]: 22.5%; viability, T/C [19]: 94.4%; viability, T/C [20]: 99.7%; viability, T/C [21]: 85.6%; viability, T/C [22]: 66.1%; viability, T/C [23]: 13.7%; viability, T/C [24]: 15.5%; viability, T/C [25]: 86.4%; viability, T/C [26]: 80.9%; viability, T/C [27]: 72.6%; viability, T/C [28]: 61.5%; viability, T/C [29]: 16.8%; viability, T/C [30]: 17.3%
